Reference: patent publication US11304944B2, “MetAP2 inhibitors and methods of treating obesity” (SynDevRx, Inc., priority 2013, dated 2022)

What was measured:
DIO C57Bl6 mice = test: In vivo testing DIO C57Bl6 mice: weight changes, food consumption, body composition (Compound 16 vs TNP-470); details: for Body Weight Day 33: sc; for Total fat as a percentage of BW / B.W. / Epididymal Fat / Inguinal Fat / Liver / Retroperitoneal Fat / Total Fat: Day 33
Procedure: C57Bl6 male mice (N=6) thirteen weeks old with an average of weight of 34 g were ad libitum fed TD.06414 a high fat diet composed of 60% Kcal from fat (Harlan diet). On study day 1 animals were randomized into groups so that the average weight of each group was 33.9 g. […] Animals were weighed every other day. Food consumption was measured weekly. On day 33 gross pathology was performed to determine body composition.

DIO C57Bl/6 mice = test: In vivo testing DIO mice schedule-dose response: weight, food intake, ipGTT, HOMA-ir data
Procedure: Animals were dosed according to the schedule in Table 17 below.
Compound dosing occurred between 9 and 10 am on the day of dosing. Groups 6 and 7 received a total of 17 doses. The q4d groups (1, 2, 3, 4, 8, 9) received a total of 9 doses. The q8d group (5) received a total of 5 drug doses. Body weight and food intake were measured every other day. Blood glucose was measured on Day −7, Day 0, Day 7, Day 14, Day 21 and Day 28 at 9:00 am in fed state (BG measured before dose on dosing days). BG was measured by glucometer. An intraperitoneal glucose tolerance test (ipGTT, 6 h fasting) was performed.
The study was terminated on day 34. Liver and epididymal white adipose tissues (eWAT) were harvested, weighed and stored at −80° C. Sera was collected to determine: AST, ALT, ALP, CK, BUN, creatinine, calcium, potassium, sodium, chloride, total protein, albumin, total bilirubin, glucose, triglyceride and cholesterol. Insulin samples were measured using a commercial kit.

poly[HPMA-co-MA-GFLG-N-(trans-4-aminocyclohexyl)carbamoylfumagillol] [Compound 16]
Body Weight Day 33 (DIO C57Bl6 mice; 0.5 mg/kg/day, qod): 30.4 g | Total fat as a percentage of BW (DIO C57Bl6 mice; 1 mg/kg qod): 8.2% | Body Weight Day 33 (DIO C57Bl6 mice; 1.5 mg/kg/day, q4d): 27.4 g | B.W. (DIO C57Bl6 mice; 6 mg/kg q4d): 27.4 grams | Epididymal Fat (DIO C57Bl6 mice; 6 mg/kg q4d): 0.78 grams | Inguinal Fat (DIO C57Bl6 mice; 6 mg/kg q4d): 0.53 grams | Liver (DIO C57Bl6 mice; 6 mg/kg q4d): 1.17 grams | Retroperitoneal Fat (DIO C57Bl6 mice; 6 mg/kg q4d): 0.23 grams | Total Fat (DIO C57Bl6 mice; 6 mg/kg q4d): 1.55 grams | Total fat as a percentage of BW (DIO C57Bl6 mice; 6 mg/kg q4d): 5.6% | degree of weight loss compared with TNP-470 (DIO C57Bl6 mice; FIG. 1): superior to TNP-470 in the degree of weight loss | food consumption compared with TNP-470 (DIO C57Bl6 mice; FIG. 2): causes a greater reduction in food consumption than TNP-470 | decrease in weight (DIO C57Bl6 mice; q4d dosing regimen (FIG. 1)): 19% | B.W. (DIO C57Bl6 mice; qod (Cmpd 16 1 mg/kg qod)): 30.4 grams | Epididymal Fat (DIO C57Bl6 mice; qod (Cmpd 16 1 mg/kg qod)): 1.18 grams | Inguinal Fat (DIO C57Bl6 mice; qod (Cmpd 16 1 mg/kg qod)): 0.92 grams | Liver (DIO C57Bl6 mice; qod (Cmpd 16 1 mg/kg qod)): 1.10 grams | Retroperitoneal Fat (DIO C57Bl6 mice; qod (Cmpd 16 1 mg/kg qod)): 0.42 grams | Total Fat (DIO C57Bl6 mice; qod (Cmpd 16 1 mg/kg qod)): 2.52 grams | Glucose, ipGTT 0 min (DIO C57Bl/6 mice; 2 mg/kg q4d): 182.8 mg/dL | Glucose, ipGTT 15 min (DIO C57Bl/6 mice; 2 mg/kg q4d): 488.6 mg/dL | Insulin, ipGTT 0 min (DIO C57Bl/6 mice; 2 mg/kg q4d): 104.6 uU/ml | Insulin, ipGTT 15 min (DIO C57Bl/6 mice; 2 mg/kg q4d): 133.4 uU/ml | Glucose, ipGTT 0 min (DIO C57Bl/6 mice; 6 mg/kg q4d): 179.8 mg/dL | Glucose, ipGTT 15 min (DIO C57Bl/6 mice; 6 mg/kg q4d): 557.3 mg/dL | Insulin, ipGTT 0 min (DIO C57Bl/6 mice; 6 mg/kg q4d): 53.2 uU/ml | Insulin, ipGTT 15 min (DIO C57Bl/6 mice; 6 mg/kg q4d): 64.3 uU/ml | Glucose, ipGTT 0 min (DIO C57Bl/6 mice; 12 mg/kg Q8D): 204.0 mg/dL | Glucose, ipGTT 15 min (DIO C57Bl/6 mice; 12 mg/kg Q8D): 553.1 mg/dL | Insulin, ipGTT 0 min (DIO C57Bl/6 mice; 12 mg/kg Q8D): 75.9 uU/ml | Insulin, ipGTT 15 min (DIO C57Bl/6 mice; 12 mg/kg Q8D): 96.0 uU/ml | fasting insulin (DIO C57Bl/6 mice; all Compound 16 groups, FIG. 22): fasting insulin was also reduced
